Here are results for 6 molecules from patent US20050032111A1, “Cadherin-11 as an indicator of viable pregnancy” (priority 1997, published 2005).

One assay deals with cad-11 mRNA. Put plainly: Northern blot analysis of cad-11 mRNA in cultured endometrial stromal cells. Format: cell-based, human. The conditions noted are these: for stromal cad-11 mRNA levels over time: Example 4C, P4 1 μM, E2 30 nM, DHT 0.1 μM, 0-96 h, P4 effect continued to increase until 96 h; for cad-11 mRNA levels: Example 4B, 24 h culture, P4 0.1-1 μM, E2 30 nm. Here is the method:
(§1) Endometrial stroma cells were isolated from secretory endometrium as described above. The stroma cells were grown to confluence, washed with PBS, and cultured in DMEM containing charcoal stripped FCS for a further 24 h. The culture medium was removed, and after the cells had been washed twice with PBS, replaced with fresh DMEM containing charcoal stripped FCS. The cells were harvested for either Northern (see Example 5) or Western blot analysis (see Example 6) after 24 h of culture in the presence or absence of steroids in the culture medium P4 (0.1-1 μM), E2 (30 nm), or vehicle (0.1% ethanol).
(§2) Endometrial stromal cells were separated from the glandular epithelium by enzymatic digestion and mechanical dissociation as described above. The endometrial stromal cells were washed once in phenol red-free Dulbecco'e Modified Eagle's medium (DMEM) containing 10% charcoal-stripped fetal bovine serum (FBS) before being resuspended and plated in DMEM containing 25 mM glucose, […] L-glutamine, antibiotics (100 U/ml penicillin, 100 μg/ml streptomycin and 2.5 μg/ml fungizone), and supplemented with 30% charcoal-stripped FBS. The culture medium was replaced 30 min after plating in order to reduce epithelial cell contamination. The purity of the cell cultures was determined by immunocytochemical staining for vimentin, cytokeratin, muscle actin, and factor VIII.
(§3) The stromal cells (passage 2) were grown to confluence, washed with PBS, and cultured in phenol, red-free DMEM supplemented with 10% charcoal-stripped FBS is and containing either progesterone (P4 1 μM), 17β-estradiol (E2, 30 nM), the non-aromatisable androgen dihydrotestosterone (DHT, 0.1 μM) or vehicle (0.1% ethanol). The cells were cultured in the presence or absence of the steroids for 0, 6, 12, 24, 48, 72 or 96 h before being harvested for Northern or Western blot analysis as described in Examples 5 and 6 using the probe described in Example 4A.
To standardise the amounts of total RNA, the blots were also probed with a radiolabelled synthetic oligonucleotide specific for 18S rRNA. Radioautograms were scanned using an LKB laser densitometer. The absorbance values obtained for the cad-11 transcripts were normalised relative to the 18S rDNA absorbance value. Statistical differences between time points and treatments were assessed by the analysis of variance (ANOVA). Differences were considered to be significant for p <0.05.
(§4) To determine whether a combination of steroids was required for maximal cad-11 expression in endometrial stromal cells, the cells (prepared as described above) were cultured in the presence of P4 (1 μM) plus E2 (30 nM), or P4 (1 μM) plus DHT (0.1 μM) for 0, 6, 12, 24, 48, 72 or 96 h before being harvested for Northern or Western blot analysis as described above.
(§5) To determine whether the ability of E2 to potentiate the effects of P4 on stromal cad-11 expression was dose-dependent, the cells were cultured in the presence of vehicle (0.1% ethanol), E2 (30 nM), P4 (1 μM) or P4 (1 μM) plus varying doses of E2 ([…]) for 96 h. 30 nM is approximately equivalent to physiological levels. The cells were then harvested for Northern and Western blot analysis using the procedures described above.
RNA Extraction using an RNAID™ kit (BIO 101, Inc.): • 1. 500 μl cell solution+500 μl of 2M sodium acetate (pH 4.0). • 2. Vortex. • 3. Add 525 μl of chloroform/isoamyl alcohol. • 4. Vortex. • 5. Incubate on ice for 15 minutes. • 6. Spin at 4° C./10,000×g for 20 minutes. • 7. Transfer top phase (RNA rich portion) to a new vial, taking care not to touch the interface and bottom organic solvent part. • 8. Add ½ volume of chloroform/isoamyl alcohol. • 9. Vortex. • 10. Spin 2 min at 4° C./10,000×g. • 11. Transfer top phase to a new tube. • 12. Add 20 μl of RNA Matrix. • 13. Vortex 30 sec. • […].

A further assay concerns cad-11 protein. Put plainly: Western blot analysis of cad-11 protein in cultured endometrial stromal cells. Particulars: for cad-11 protein expression levels over time: Example 4C, P4 1 μM, E2 30 nM, DHT 0.1 μM, 0-96 h, P4 effect continued to increase until 86 h [sic]. The format is cell-based, human. The procedure: as §1, §2, §3, §4, §5
Cell cultures were rinsed three times with PBS and drained. The cells were incubated in 100 μl of cell lysis buffer (Tris HCL, pH 7.5 containing 0.5 NP-40, 0.5 mM CaCl2, and 1.0 mM PMSF) at 4° C. for 30 min on a rocking platform. Cell lysates were collected by scraping plate with a plastic spatula. The cell lysates were centrifuged at 10,000 xg for 20 min, and the supernatant was used in the Western Blot analyses or stored at −70° C. Aliquots from the samples were subjected to SDS polyacrylamide gel electrophoresis under reducing conditions. The stacking gels contained 5% acrylamide, and the separating gels were composed of 7.5% acrylamide. The proteins were electrophoretically transferred from the gels onto nitrocellulose membrane. The nitrocellulose blots were probed with the mouse monoclonal antibody (C11-113H) directed against human cad-11 (from ICOS Corporation, Bothell, Wash.) produced as described in Example 10 below. The Amersham ECL™ system was used to detect antibody bound to antigen.
(A western blot detects proteins with antibodies after separation by electrophoresis.)

Assay [1] deals with cad-11 in the endometrium. The assay is described as follows: Cad-11 immunostaining (HSCORE) of endometrial biopsies after treatment. Particulars: for AFTER TREATMENT (HSCORE), cad-11 expression in the endometrium: women with primary habitual abortion and LPD, one line per patient 1-8; for effect of treatment on endometrial cad-11 expression: women with LPD-associated habitual abortion, degree of response variable. The format is in vivo, human. The procedure: The intensity of cad-11 immunostaining in the endometrial biopsies may be determined by the semiquantitative HSCORE technique which is routinely used in oncology for cancer cell counts. The HSCORE is a continuous value (from 0-4, respectively), in which a discriminatory level that designates positives and negatives for the test is determined. Typically, a consensus is made between counts carried out by two observers in a blinded fashion employing a double-headed microscope at low and high magnification.
(§6) The presence of cad-11 was examined in endometrial biopsies obtained from women presenting with primary (no prior live birth) habitual abortion in association with luteal phase deficiency (LPD). This group of women, who account for approximately 20% of the women attending the Recurrent Pregnancy Loss Clinic, B.C. Women's Hospital and Health Centre, University of British Columbia, Vancouver, Canada, are routinely treated with progesterone or clomiphene citrate (a nonsteroidal synthetic compound). Biopsy specimens were obtained from these women before and after treatment. Cad-11 expression/production was correlated with pregnancy outcome upon treatment. Present treatment of LPD consists of either vaginal progesterone suppositories or clomiphene citrate, with the dosage being adjusted until a repeat endometrial biopsy is considered to be “in phase” by morphological assessment.
LPD was diagnosed by traditional methods prior to determining cad-11 by immunostaining. To increase the likelihood of including only those individuals with authentic LPD, the criteria for inclusion in this study was two consecutive biopsies with a 3 days of maturation delay based on the first day of the next menses as determined by morphological assessment.
In 16 such patients, cad-11 immunostaining was examined in biopsies obtained before and after treatment with either progesterone (results shown in Table 1A) or clomiphene citrate (results shown in Table 1B). All 16 had return of normal in-phase morphology on subsequent biopsy. The endometrial biopsy specimens were then re-evaluated for cad-11 using immunohistochemical staining. Comparison of staining pattern and intensity was performed using a monoclonal antibody directed against human cadherin-11 and standard immunohistochemical techniques according to the protocol set out in Example 3. The intensity of cad-11 immunostaining in the endometrial biopsies was determined by the semiquantitative HSCORE technique as described above.
For Detection of Cad-11 in Endometrial Biopsy Specimens • Prepare diluent fresh 1% bovine serum albumin (BSA; Sigma Chem Co.)/1% Automation Buffer (AB; ESBE Lab.) (wt/vol).
For paraffin embedded endometrial biopsy specimen sections (5 μm): • 1. Wash tissue specimen thoroughly in phosphate-buffered saline (PBS). • 2. […]

For assay [2], the system named is women presenting with primary habitual abortion and diagnosed with luteal phase deficiency. Put plainly: Pregnancy outcome upon treatment. Format: in vivo, human. The conditions noted are these: one line per patient 1-8.
Excerpt: as §6
However, different intensities of cad-11 immunostaining in the epithelial and stromal component of the endometrium observed in this cohort of women (HSCORES=0-4: Tables 1A and 1B). […] Conversely, a negative HSCORE (0-1) following treatment correlated with a subsequent pregnancy loss (spontaneous abortion).

[3] abbreviates: Example 4E, P4 1 μM plus E2 0.5-100 nM, 96 h.
[4] abbreviates: Example 4E, with P4 1 μM, 96 h, versus 30 nM E2.
Setting [5] is: Example 4F, cultured endometrial stromal cells.
Where [6] appears, read: Treatment: Progesterone Suppositories.

Values joined by “and” are separate entries in the source; they are usually repeats but may differ in a detail not shown here. Equal entries are not always repeated. “Also recorded” adds a separate entry of the source. Structures can show the parent of a compound that is named as a salt.

`C[C@]12CCC(=O)C[C@@H]1CC[C@@H]1[C@@H]2CC[C@]2(C)[C@@H](O)CC[C@@H]12` [DHT, dihydrotestosterone]: the “stromal cad-11 mRNA levels over time” value in the assay on cad-11 mRNA was “did not significantly increase cad-11 mRNA levels”. The “cad-11 protein expression levels over time” value in the assay on cad-11 protein is reported as “No significant increase in cad-11 expression levels”.

For the molecule `C[C@]12CC[C@@H]3c4ccc(O)cc4CC[C@H]3[C@@H]1CC[C@@H]2O` [E2, 17β-estradiol], in the assay on cad-11 mRNA, the “cad-11 mRNA levels” value was “little effect on cad-11 mRNA levels” and the “stromal cad-11 mRNA levels over time” value is reported as “did not significantly increase cad-11 mRNA levels”. For the same molecule, in the assay on cad-11 mRNA (setting [3]), the “potentiation of P4-mediated increase in stromal cad-11 mRNA by increasing doses of E2” value is on record as “progressively enhanced the effects of P4”. In the assay on cad-11 mRNA (Example 4E, with P4 1 μM, 96 h), the “E2 concentration at which maximum cad-11 mRNA expression level was observed” value was found to be 30 nM. Further, the “enhancement of stromal cad-11 mRNA when E2 was increased to 100 nM” value in the assay with cad-11 mRNA (setting [4]) is given as “no further enhancement”. For the same molecule, in the assay on cad-11 mRNA (setting [5]), the “potentiation of the progestin-mediated increase in cad-11 mRNA” value is on record as “potentiate this effect”. Moreover, the “cad-11 protein expression levels over time” value in the assay on cad-11 protein is “No significant increase in cad-11 expression levels”. In addition, the “potentiation of P4-mediated increase in stromal cad-11 protein by increasing doses of E2” value with cad-11 protein (setting [3]) was “progressively enhanced the effects of P4”. Further, the “E2 concentration at which maximum cad-11 protein expression level was observed” value in the assay with cad-11 protein (Example 4E, with P4 1 μM, 96 h) is reported as 30 nM. Further, the “enhancement of stromal cad-11 protein when E2 was increased to 100 nM” value in the assay with cad-11 protein (setting [4]) was “no further enhancement”. Also, the “potentiation of the progestin-mediated increase in cad-11 protein” value with cad-11 protein (setting [5]) is “potentiate this effect”.

On to `CC(=O)[C@H]1CC[C@H]2[C@@H]3CC=C4C[C@@H](O)CC[C@]4(C)[C@H]3CC[C@]12C` [Pregnenolone], for which the “regulation of cad-11 mRNA expression by steroid alone” value (from here on “regulation of cad-11 mRNA expression”) with cad-11 mRNA (setting [5]) is on record as “increased cad-11 expression”. Also, the “regulation of cad-11 protein expression by steroid alone” value (shortened to “regulation of cad-11 protein expression”) in the assay on cad-11 protein (setting [5]) was “increased cad-11 expression”.

For `CCN(CC)CCOc1ccc(C(=C(Cl)c2ccccc2)c2ccccc2)cc1` [clomiphene citrate], the “AFTER TREATMENT (HSCORE), cad-11 expression in the endometrium” value in assay [1] (Treatment: Clomiphene Citrate) was 4 (positive) HSCORE (2×) and 2 (equivocal) HSCORE and 1 (negative) HSCORE (2×) and 0 (negative) HSCORE and 3 (positive) HSCORE (2×). For the same molecule, in assay [1], the “effect of treatment on endometrial cad-11 expression” value is listed as “capable of increasing endometrial cad-11 expression”. Besides, the “PREGNANCY OUTCOME” value in assay [2] (Treatment: Clomiphene Citrate) is given as “successful; also recorded: spontaneous”.

As to `CC(=O)O[C@]1(C(C)=O)CC[C@H]2[C@@H]3C[C@H](C)C4=CC(=O)CC[C@]4(C)[C@H]3CC[C@@]21C` [medroxyprogesterone acetate], the “regulation of cad-11 mRNA expression” value in the assay with cad-11 mRNA (setting [5]) is “increased cad-11 expression”. For the same molecule, the “regulation of cad-11 protein expression” value with cad-11 protein (setting [5]) is listed as “increased cad-11 expression”.

Turning to `CC(=O)[C@H]1CC[C@H]2[C@@H]3CCC4=CC(=O)CC[C@]4(C)[C@H]3CC[C@]12C` [progesterone], in the assay on cad-11 mRNA, the “cad-11 mRNA levels” value is “increased cad-11 mRNA levels in a dose-dependent manner” and the “stromal cad-11 mRNA levels over time” value is “significant increase in the stromal cad-11 mRNA levels after 24 h”. In addition, the “regulation of cad-11 mRNA expression” value with cad-11 mRNA (setting [5]) is listed as “increased cad-11 expression”. Further, the “stromal cad-11 protein” value in the assay on cad-11 protein (Example 4B, 24 h culture, P4 0.1-1 μM) was “induced an increase in stromal cad-11 protein”. Besides, in the assay with cad-11 protein, the “cad-11 protein expression levels over time” value is on record as “increase in cad-11 expression after 24 h”. Further, the “regulation of cad-11 protein expression” value in the assay with cad-11 protein (setting [5]) is given as “increased cad-11 expression”. In addition, in assay [1] (setting [6]), the “AFTER TREATMENT (HSCORE), cad-11 expression in the endometrium” value is 3 (positive) HSCORE (2×) and 4 (positive) HSCORE (2×) and 2 (equivocal) HSCORE and 1 (negative) HSCORE (2×) and 0 (negative) HSCORE. The “effect of treatment on endometrial cad-11 expression” value in assay [1] was “capable of increasing endometrial cad-11 expression”. Also, the “PREGNANCY OUTCOME” value in assay [2] (setting [6]) is recorded as “successful; also recorded: spontaneous”.
